Reference: ChEMBL document CHEMBL1201862, “PubChem BioAssay data set” (2004)
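Values below derive from 48-hour exposures of cells grown in 96-well plates, with endpoints linearly interpolated between the two concentrations bracketing the appropriate inhibition level. GI50 = concentration required for 50% inhibition of growth.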 The source made the active and inactive calls. Cut-off read from the data, not from the text of the source: active = GI50 up to about 1.1 µM and inactive = higher.

What was measured:
Test in all cases: NCI-60 cell line screen, 48 h
EKVX = test system: EKVX
SF-295 = test system: SF-295
KM12 = test system: KM12
LOX IMVI = test system: LOX IMVI
COLO 205 = test system: COLO 205
NCI-H23 = test system: NCI-H23
CAKI-1 = test system: CAKI-1
U-251 = test system: U-251
M19-MEL = test system: M19-MEL
HOP-92 = test system: HOP-92
CCRF-CEM = test system: CCRF-CEM
KM-20L2 = test system: KM-20L2
HT-29 = test system: HT-29
SK-OV-3 = test system: SK-OV-3
HOP-62 = test system: HOP-62
DMS-273 = test system: DMS-273
UACC-62 = test system: UACC-62
RPMI-8226 = test system: RPMI-8226
SNB-78 = test system: SNB-78
DLD-1 = test system: DLD-1
SN12C = test system: SN12C
SNB-75 = test system: SNB-75
XF498 = test system: XF498
SF-268 = test system: SF-268
SW-620 = test system: SW-620
SNB-19 = test system: SNB-19
NCI-H460 = test system: NCI-H460
HL-60 = test system: HL-60
LXFL 529 = test system: LXFL 529
SK-MEL-2 = test system: SK-MEL-2
UACC-257 = test system: UACC-257
RXF 393 = test system: RXF 393
786-0 = test system: 786-0
HCT-15 = test system: HCT-15
OVCAR-5 = test system: OVCAR-5
IGROV-1 = test system: IGROV-1
OVCAR-3 = test system: OVCAR-3
NCI-H226 = test system: NCI-H226
HCT-116 = test system: HCT-116
A498 = test system: A498
K562 = test system: K562
SK-MEL-5 = test system: SK-MEL-5
A549 = test system: A549
OVCAR-4 = test system: OVCAR-4
NCI-H522 = test system: NCI-H522
UO-31 = test system: UO-31
TK-10 = test system: TK-10
M14 = test system: M14
SF-539 = test system: SF-539
MOLT-4 = test system: MOLT-4
OVCAR-8 = test system: OVCAR-8
HOP-18 = test system: HOP-18
Malme-3M = test system: Malme-3M
SK-MEL-28 = test system: SK-MEL-28
ACHN = test system: ACHN
SR = test system: SR
HCC 2998 = test system: HCC 2998
DMS-114 = test system: DMS-114

## O=c1[nH]cc(COCCCO)c(=O)[nH]1
EKVX
  GI50: > 100 µM (inactive)
SF-295
  GI50: > 100 µM (inactive)
KM12
  GI50: > 100 µM (inactive)
LOX IMVI
  GI50: > 100 µM (inactive)
COLO 205
  GI50: > 100 µM (inactive)
NCI-H23
  GI50: 53.5 µM (inactive)
CAKI-1
  GI50: > 100 µM (inactive)
U-251
  GI50: > 100 µM (inactive)
M19-MEL
  GI50: > 100 µM (inactive)
HOP-92
  GI50: > 100 µM (inactive)
CCRF-CEM
  GI50: > 100 µM (inactive)
KM-20L2
  GI50: > 100 µM (inactive)
HT-29
  GI50: > 100 µM (inactive)
SK-OV-3
  GI50: > 100 µM (inactive)
HOP-62
  GI50: > 100 µM (inactive)
DMS-273
  GI50: > 100 µM (inactive)
UACC-62
  GI50: > 100 µM (inactive)
RPMI-8226
  GI50: > 100 µM (inactive)
SNB-78
  GI50: > 100 µM (inactive)
DLD-1
  GI50: > 100 µM (inactive)
SN12C
  GI50: > 100 µM (inactive)
SNB-75
  GI50: > 100 µM (inactive)
XF498
  GI50: > 100 µM (inactive)
SF-268
  GI50: > 100 µM (inactive)
SW-620
  GI50: > 100 µM (inactive)
SNB-19
  GI50: > 100 µM (inactive)
NCI-H460
  GI50: > 100 µM (inactive)
HL-60
  GI50: > 100 µM (inactive)
LXFL 529
  GI50: > 100 µM (inactive)
SK-MEL-2
  GI50: > 100 µM (inactive)
UACC-257
  GI50: > 100 µM (inactive)
RXF 393
  GI50: > 100 µM (inactive)
786-0
  GI50: > 100 µM (inactive)
HCT-15
  GI50: > 100 µM
OVCAR-5
  GI50: > 100 µM (inactive)
IGROV-1
  GI50: > 100 µM (inactive)
OVCAR-3
  GI50: > 100 µM (inactive)
NCI-H226
  GI50: > 100 µM (inactive)
HCT-116
  GI50: > 100 µM (inactive)
A498
  GI50: > 100 µM (inactive)
K562
  GI50: > 100 µM (inactive)
SK-MEL-5
  GI50: > 100 µM (inactive)
A549
  GI50: > 100 µM (inactive)
OVCAR-4
  GI50: > 100 µM (inactive)
NCI-H522
  GI50: > 100 µM (inactive)
UO-31
  GI50: > 100 µM (inactive)
TK-10
  GI50: > 100 µM (inactive)
M14
  GI50: > 100 µM (inactive)
SF-539
  GI50: > 100 µM (inactive)
MOLT-4
  GI50: > 100 µM (inactive)
OVCAR-8
  GI50: > 100 µM (inactive)
HOP-18
  GI50: > 100 µM (inactive)
Malme-3M
  GI50: > 100 µM (inactive)
SK-MEL-28
  GI50: > 100 µM (inactive)
ACHN
  GI50: > 100 µM (inactive)
SR
  GI50: > 100 µM (inactive)

## N#Cc1c(C[n+]2ccccc2)c2ccccc2oc1=O
EKVX
  GI50: > 100 µM (inactive)
SF-295
  GI50: > 100 µM (inactive)
KM12
  GI50: > 100 µM (inactive)
LOX IMVI
  GI50: > 100 µM (inactive)
COLO 205
  GI50: > 100 µM (inactive)
NCI-H23
  GI50: > 100 µM (inactive)
CAKI-1
  GI50: > 100 µM (inactive)
U-251
  GI50: > 100 µM (inactive)
M19-MEL
  GI50: > 100 µM (inactive)
CCRF-CEM
  GI50: > 100 µM (inactive)
KM-20L2
  GI50: > 100 µM (inactive)
HCC 2998
  GI50: > 100 µM (inactive)
HT-29
  GI50: > 100 µM (inactive)
SK-OV-3
  GI50: > 100 µM (inactive)
HOP-62
  GI50: > 100 µM (inactive)
DMS-273
  GI50: > 100 µM (inactive)
UACC-62
  GI50: > 100 µM (inactive)
RPMI-8226
  GI50: > 100 µM (inactive)
SNB-78
  GI50: > 100 µM (inactive)
DLD-1
  GI50: > 100 µM (inactive)
SN12C
  GI50: > 100 µM (inactive)
SNB-75
  GI50: > 100 µM (inactive)
XF498
  GI50: > 100 µM (inactive)
SF-268
  GI50: > 100 µM (inactive)
SW-620
  GI50: > 100 µM (inactive)
SNB-19
  GI50: > 100 µM (inactive)
NCI-H460
  GI50: > 100 µM (inactive)
LXFL 529
  GI50: > 100 µM (inactive)
SK-MEL-2
  GI50: > 100 µM (inactive)
UACC-257
  GI50: > 100 µM (inactive)
DMS-114
  GI50: > 100 µM (inactive)
786-0
  GI50: > 100 µM (inactive)
HCT-15
  GI50: > 100 µM
OVCAR-5
  GI50: > 100 µM (inactive)
IGROV-1
  GI50: > 100 µM (inactive)
OVCAR-3
  GI50: > 100 µM (inactive)
NCI-H226
  GI50: > 100 µM (inactive)
HCT-116
  GI50: > 100 µM (inactive)
K562
  GI50: > 100 µM (inactive)
SK-MEL-5
  GI50: > 100 µM (inactive)
A549
  GI50: > 100 µM (inactive)
OVCAR-4
  GI50: 22.7 µM (inactive)
NCI-H522
  GI50: > 100 µM (inactive)
UO-31
  GI50: > 100 µM (inactive)
M14
  GI50: > 100 µM (inactive)
SF-539
  GI50: > 100 µM (inactive)
MOLT-4
  GI50: > 100 µM (inactive)
OVCAR-8
  GI50: > 100 µM (inactive)
Malme-3M
  GI50: > 100 µM (inactive)
SK-MEL-28
  GI50: > 100 µM (inactive)
ACHN
  GI50: > 100 µM (inactive)
SR
  GI50: > 100 µM (inactive)
